Results published in PubChem BioAssay (NCI).
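Exposure lasted 48 hours, with cells grown in 96-well plates and compounds tested at five concentrations. Here, GI50 denotes the concentration required for 50% inhibition of growth. The concentration for full growth arrest is given as TGI.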

How the values were obtained:
Test in all cases: growth of human tumour cells (NCI), 48 h
KM12 colon = test system: KM12 colon
RXF 393 renal = test system: RXF 393 renal
HOP-62 NSCLC = test system: HOP-62 NSCLC
SR leukemia = test system: SR leukemia
HL-60(TB) leukemia = test system: HL-60(TB) leukemia
U251 CNS = test system: U251 CNS
SW-620 colon = test system: SW-620 colon
HCC-2998 colon = test system: HCC-2998 colon
COLO 205 colon = test system: COLO 205 colon
NCI-H23 lung = test system: NCI-H23 lung
SK-MEL-5 melanoma = test system: SK-MEL-5 melanoma
MOLT-4 leukemia = test system: MOLT-4 leukemia
A498 renal = test system: A498 renal
M14 melanoma = test system: M14 melanoma
LOX IMVI melanoma = test system: LOX IMVI melanoma
OVCAR-8 ovarian = test system: OVCAR-8 ovarian
SK-OV-3 ovarian = test system: SK-OV-3 ovarian
NCI-H460 lung = test system: NCI-H460 lung
UACC-257 melanoma = test system: UACC-257 melanoma
OVCAR-5 ovarian = test system: OVCAR-5 ovarian
RPMI-8226 leukemia = test system: RPMI-8226 leukemia
PC-3 prostate = test system: PC-3 prostate
OVCAR-3 ovarian = test system: OVCAR-3 ovarian
SN12C renal = test system: SN12C renal
NCI/ADR-RES ovarian = test system: NCI/ADR-RES ovarian
SF-268 CNS = test system: SF-268 CNS
HCT-15 colon = test system: HCT-15 colon
A549 NSCLC = test system: A549 NSCLC
DU-145 prostate = test system: DU-145 prostate
NCI-H226 lung = test system: NCI-H226 lung
MCF7 breast = test system: MCF7 breast
IGROV1 ovarian = test system: IGROV1 ovarian
SNB-19 CNS = test system: SNB-19 CNS
UO-31 renal = test system: UO-31 renal
EKVX NSCLC = test system: EKVX NSCLC
HCT-116 colon = test system: HCT-116 colon
SF-295 CNS = test system: SF-295 CNS
NCI-H522 lung = test system: NCI-H522 lung
OVCAR-4 ovarian = test system: OVCAR-4 ovarian
UACC-62 melanoma = test system: UACC-62 melanoma
TK-10 renal = test system: TK-10 renal
CCRF-CEM leukemia = test system: CCRF-CEM leukemia
SK-MEL-2 melanoma = test system: SK-MEL-2 melanoma
SF-539 CNS = test system: SF-539 CNS
786-0 renal = test system: 786-0 renal
HT29 colon = test system: HT29 colon
ACHN renal = test system: ACHN renal
HS 578T breast = test system: HS 578T breast
MDA-MB-435 = test system: MDA-MB-435
CAKI-1 renal = test system: CAKI-1 renal
BT-549 breast = test system: BT-549 breast
SNB-75 CNS = test system: SNB-75 CNS
K-562 leukemia = test system: K-562 leukemia
SK-MEL-28 melanoma = test system: SK-MEL-28 melanoma
MDA-MB-231 breast = test system: MDA-MB-231 breast

O=C1OCC2=C1C(c1cccc(Cl)c1)c1cc3c(cc1N2CCO)OCO3 (configuration not stated)
GI50 (KM12 colon): 398 nM
TGI (KM12 colon): 29600 nM
GI50 (RXF 393 renal): 278 nM
GI50 (HOP-62 NSCLC): 481 nM
TGI (HOP-62 NSCLC): 57700 nM
GI50 (SR leukemia): 359 nM
TGI (SR leukemia): 70400 nM
GI50 (HL-60(TB) leukemia): 328 nM
TGI (HL-60(TB) leukemia): 3700 nM
GI50 (U251 CNS): 383 nM
TGI (U251 CNS): 17700 nM
GI50 (SW-620 colon): 358 nM
TGI (SW-620 colon): > 100000 nM
GI50 (HCC-2998 colon): 1070 nM
TGI (HCC-2998 colon): 14300 nM
GI50 (COLO 205 colon): 360 nM
TGI (COLO 205 colon): 1380 nM
GI50 (NCI-H23 lung): 502 nM
TGI (NCI-H23 lung): > 100000 nM
GI50 (SK-MEL-5 melanoma): 256 nM
TGI (SK-MEL-5 melanoma): 12500 nM
GI50 (MOLT-4 leukemia): 1140 nM
TGI (MOLT-4 leukemia): 97800 nM
GI50 (A498 renal): 230 nM
TGI (A498 renal): 2550 nM
GI50 (M14 melanoma): 360 nM
TGI (M14 melanoma): > 22500 nM
GI50 (LOX IMVI melanoma): 600 nM
TGI (LOX IMVI melanoma): 27000 nM
GI50 (OVCAR-8 ovarian): 503 nM
TGI (OVCAR-8 ovarian): > 65800 nM
GI50 (SK-OV-3 ovarian): 412 nM
TGI (SK-OV-3 ovarian): 10500 nM
GI50 (NCI-H460 lung): 414 nM
TGI (NCI-H460 lung): > 35300 nM
GI50 (UACC-257 melanoma): 256 nM
TGI (UACC-257 melanoma): > 44500 nM
GI50 (OVCAR-5 ovarian): 1260 nM
TGI (OVCAR-5 ovarian): > 100000 nM
GI50 (RPMI-8226 leukemia): 535 nM
TGI (RPMI-8226 leukemia): 35800 nM
GI50 (PC-3 prostate): 381 nM
TGI (PC-3 prostate): > 43700 nM
GI50 (OVCAR-3 ovarian): 270 nM
TGI (OVCAR-3 ovarian): 811 nM
GI50 (SN12C renal): 817 nM
TGI (SN12C renal): > 63700 nM
GI50 (NCI/ADR-RES ovarian): 301 nM
TGI (NCI/ADR-RES ovarian): > 41000 nM
GI50 (SF-268 CNS): 700 nM
TGI (SF-268 CNS): 34600 nM
GI50 (HCT-15 colon): 428 nM
TGI (HCT-15 colon): > 100000 nM
GI50 (A549 NSCLC): 498 nM
TGI (A549 NSCLC): 33500 nM
GI50 (DU-145 prostate): 512 nM
TGI (DU-145 prostate): 16900 nM
GI50 (NCI-H226 lung): 753 nM
TGI (NCI-H226 lung): 20000 nM
GI50 (MCF7 breast): 313 nM
TGI (MCF7 breast): > 100000 nM
GI50 (IGROV1 ovarian): 2790 nM
TGI (IGROV1 ovarian): > 74400 nM
GI50 (SNB-19 CNS): 784 nM
TGI (SNB-19 CNS): > 100000 nM
GI50 (UO-31 renal): 465 nM
TGI (UO-31 renal): > 65400 nM
GI50 (EKVX NSCLC): 2590 nM
TGI (EKVX NSCLC): > 87200 nM
GI50 (HCT-116 colon): 466 nM
TGI (HCT-116 colon): > 36300 nM
GI50 (SF-295 CNS): 260 nM
TGI (SF-295 CNS): 22400 nM
GI50 (NCI-H522 lung): 228 nM
TGI (NCI-H522 lung): 16200 nM
GI50 (OVCAR-4 ovarian): 696 nM
TGI (OVCAR-4 ovarian): > 100000 nM
GI50 (UACC-62 melanoma): 360 nM
TGI (UACC-62 melanoma): > 44600 nM
GI50 (TK-10 renal): 17700 nM
TGI (TK-10 renal): > 100000 nM
GI50 (CCRF-CEM leukemia): 527 nM
TGI (CCRF-CEM leukemia): > 100000 nM
GI50 (SK-MEL-2 melanoma): 2440 nM
TGI (SK-MEL-2 melanoma): > 44300 nM
GI50 (SF-539 CNS): 303 nM
GI50 (786-0 renal): 558 nM
TGI (786-0 renal): > 41800 nM
GI50 (HT29 colon): 364 nM
TGI (HT29 colon): 4730 nM
GI50 (ACHN renal): 785 nM
TGI (ACHN renal): > 100000 nM
GI50 (HS 578T breast): 445 nM
TGI (HS 578T breast): > 58200 nM
GI50 (MDA-MB-435): 38.3 nM
TGI (MDA-MB-435): 233 nM
GI50 (CAKI-1 renal): 216 nM
TGI (CAKI-1 renal): 22600 nM
GI50 (BT-549 breast): 603 nM
GI50 (SNB-75 CNS): 281 nM
TGI (SNB-75 CNS): > 100000 nM
GI50 (K-562 leukemia): 354 nM
TGI (K-562 leukemia): > 100000 nM
GI50 (SK-MEL-28 melanoma): 755 nM
TGI (SK-MEL-28 melanoma): > 100000 nM
GI50 (MDA-MB-231 breast): 1660 nM
TGI (MDA-MB-231 breast): 14400 nM
